From ChEMBL document CHEMBL5370610, “Urotensin II Receptor Modulation with 1,3,4-Benzotriazepin-2-one Tetrapeptide Mimics” (J Med Chem, 2023) come the findings set out here.

Test [1] concerns Aorta. Nature of the test: Ex vivo modulatory effect on hUII-induced contractile activity in Sprague-Dawley rat aortic ring at 10^-6 M pretreated for 30 mins followed by hUII addition. The class given is functional, tissue-based. Particulars: dose 1.0 10^-6M.
A short description of test [2]: Agonist activity at RLucII-tagged Galpha-13 (unknown origin) expressed in HEK293 cells co-expressing human UT/GFP10-tagged G-gamma assessed as activation of Galpha-13 by BRET assay. The format is cell-based. For orientation: BRET reads energy transfer from a luciferase to a nearby fluorophore.
For test [3], the system named is Aorta. Nature of the test: Ex vivo modulatory effect on URP-induced contractile activity in Sprague-Dawley rat aortic ring at 10^-6 M pretreated for 30 mins followed by URP addition. The class given is functional, tissue-based. Particulars: dose 1.0 10^-6M.
Test [4] relates to HEK293. The test can be described thus: Agonist activity at RLucII-tagged Galpha-i (unknown origin) expressed in HEK293 cells co-expressing human UT/GFP10-tagged G-gamma assessed as activation of Galpha-i at 10^-5 M by BRET assay relative to hUII. The class given is cell-based. Conditions: filed as agonist, dose 1.0 10^-5M.
In test [5] the test system is HEK293. The test can be described thus: Agonist activity at RLucII-tagged Galpha-13 (unknown origin) expressed in HEK293 cells co-expressing human UT/GFP10-tagged G-gamma assessed as activation of Galpha-13 at 10^-5 M by BRET assay relative to hUII. The class given is cell-based. Particulars: filed as agonist, dose 1.0 10^-5M.
Test [6] deals with T1, Beta-arrestin-1 (Homo sapiens, UniProt P49407). Nature of the test: Agonist activity at RLucII/GFP10-tagged beta-arrestin-1 (unknown origin) expressed in HEK293 cells co-expressing human UT assessed as beta-arrestin recruitment at 10^-5 M by BRET assay relative to hUII. Particulars: filed as agonist, dose 1.0 10^-5M. The class given is cell-based. On the technique in general: Activated receptors often draw arrestin, which recruitment assays turn into a signal.

Test [7] in a line: Agonist activity at RLucII-tagged Galpha-i (unknown origin) expressed in HEK293 cells co-expressing human UT/GFP10-tagged G-gamma assessed as activation of Galpha-i by BRET assay. The class given is cell-based.
The target in test [8] is T1, Beta-arrestin-1. The test can be described thus: Agonist activity at RLucII/GFP10-tagged beta-arrestin-1 (unknown origin) recruitment expressed in HEK293 cells co-expressing human UT assessed as beta-arrestin recruitment by BRET assay. The class given is cell-based.
Test [9] addresses T2, Guanine nucleotide-binding protein G(q) subunit alpha (Homo sapiens, UniProt P50148).
T2 sequence (P50148 whole entry): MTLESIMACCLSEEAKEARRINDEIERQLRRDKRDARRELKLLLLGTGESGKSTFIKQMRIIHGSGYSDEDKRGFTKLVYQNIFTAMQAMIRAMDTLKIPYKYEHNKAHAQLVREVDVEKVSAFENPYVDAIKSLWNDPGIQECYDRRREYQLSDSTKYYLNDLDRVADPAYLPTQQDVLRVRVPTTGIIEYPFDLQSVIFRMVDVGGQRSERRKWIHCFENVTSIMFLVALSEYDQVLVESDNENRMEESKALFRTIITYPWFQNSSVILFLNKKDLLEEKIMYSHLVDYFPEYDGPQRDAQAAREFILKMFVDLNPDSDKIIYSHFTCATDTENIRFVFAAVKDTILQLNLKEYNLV
The test can be described thus: Agonist activity at RLucII-tagged Galpha-q (unknown origin) expressed in HEK293 cells co-expressing human UT/GFP10-tagged G-gamma assessed as activation of Galpha-q by BRET assay. The format is cell-based.

Test [10] deals with T3, Guanine nucleotide-binding protein G(q) subunit alpha (Homo sapiens) (UniProt P50148).
T3 sequence (whole entry): T2 sequence (P50148 whole entry)
Nature of the test: Agonist activity at RLucII-tagged Galpha-q (unknown origin) expressed in HEK293 cells co-expressing human UT/GFP10-tagged G-gamma assessed as activation of Galpha-q at 10^-5 M by BRET assay relative to hUII. The class given is cell-based. Conditions: filed as agonist, dose 1.0 10^-5M.

Test [11] concerns Aorta. The test can be described thus: Ex vivo modulatory effect on hUII-induced contractile activity in Sprague-Dawley rat aortic ring at 10^-6 M pretreated for 30 mins followed by hUII addition (reference value: 100 +/- 9 %). The class given is functional. Particulars: 0.5 h, dose 1 10^-6M.
The target in test [12] is T2, Guanine nucleotide-binding protein G(q) subunit alpha. Nature of the test: Antagonist activity at URP-activated RLucII-tagged Galpha-q (unknown origin) expressed in HEK293 cells co-expressing human UT/GFP10-tagged G-gamma by BRET assay (reference value: 7.33 +/- 0.10). The format is cell-based.
The target of test [13] is T3, Guanine nucleotide-binding protein G(q) subunit alpha (Homo sapiens). Nature of the test: Antagonist activity at URP-activated RLucII-tagged Galpha-q (unknown origin) expressed in HEK293 cells co-expressing human UT/GFP10-tagged G-gamma at 10^-6 M by BRET assay (reference value: 100 +/- 4 %). The class given is cell-based. Conditions: filed as antagonist, dose 1.0 10^-6M.

A short description of test [14]: Antagonist activity at URP-activated RLucII-tagged Galpha-i (unknown origin) expressed in HEK293 cells co-expressing human UT/GFP10-tagged G-gamma by BRET assay (reference value: 7.10 +/- 0.19). The format is cell-based.
Test [15] concerns HEK293. Nature of the test: Antagonist activity at hUII-activated RLucII-tagged Galpha-q (unknown origin) expressed in HEK293 cells co-expressing human UT/GFP10-tagged G-gamma at 10^-6 M by BRET assay (reference value: 100 +/- 4 %). The format is cell-based. Particulars: filed as antagonist, dose 1.0 10^-6M.
Test [16] deals with T3, Guanine nucleotide-binding protein G(q) subunit alpha (Homo sapiens). The test can be described thus: Agonist activity at RLucII-tagged Galpha-q (unknown origin) expressed in HEK293 cells co-expressing human UT/GFP10-tagged G-gamma assessed as activation of Galpha-q at 10^-5 M by BRET assay. The format is cell-based. Conditions: dose 1.0 10^-5M.
For test [17], the system named is Aorta. The test can be described thus: Ex vivo modulatory effect on hUII-induced contractile activity in Sprague-Dawley rat aortic ring (reference value: 8.37 +/- 0.08). The format is functional, tissue-based.
Test [18] deals with Aorta. The test can be described thus: Ex vivo modulatory effect on URP-induced contractile activity in Sprague-Dawley rat aortic ring at 10^-6 M pretreated for 30 mins followed by URP addition (reference value: 100 +/- 8 %). The class given is functional. Particulars: 0.5 h, dose 1 10^-6M.
Test [19] is described as follows: Antagonist activity at hUII-activated RLucII-tagged Galpha-i (unknown origin) expressed in HEK293 cells co-expressing human UT/GFP10-tagged G-gamma by BRET assay (reference value: 7.41 +/- 0.15). The format is cell-based.
For test [20], the system named is HEK293. Nature of the test: Antagonist activity at hUII-activated RLucII-tagged Galpha-i (unknown origin) expressed in HEK293 cells co-expressing human UT/GFP10-tagged G-gamma at 10^-6 M by BRET assay (reference value: 100 +/- 5 %). The class given is cell-based. Conditions: filed as antagonist, dose 1.0 10^-6M.
Test [21] deals with HEK293. The test can be described thus: Agonist activity at RLucII-tagged Galpha-i (unknown origin) expressed in HEK293 cells co-expressing human UT/GFP10-tagged G-gamma assessed as activation of Galpha-i at 10^-5 M by BRET assay. The class given is cell-based. Conditions: dose 1.0 10^-5M.
In test [22] the target is T2, Guanine nucleotide-binding protein G(q) subunit alpha. The test can be described thus: Antagonist activity at hUII-activated RLucII-tagged Galpha-q (unknown origin) expressed in HEK293 cells co-expressing human UT/GFP10-tagged G-gamma by BRET assay (reference value: 8.26 +/- 0.09). The format is cell-based.
For test [23], the system named is Aorta. The test can be described thus: Ex vivo modulatory effect on URP-induced contractile activity in Sprague-Dawley rat aortic ring (reference value: 8.06 +/- 0.27). The format is functional, tissue-based.
Test [24] relates to HEK293. The test can be described thus: Antagonist activity at URP-activated RLucII-tagged Galpha-i (unknown origin) expressed in HEK293 cells co-expressing human UT/GFP10-tagged G-gamma at 10^-6 M by BRET assay (reference value: 100 +/- 7 %). The format is cell-based. Conditions: filed as antagonist, dose 1.0 10^-6M.

Activity calls are given as the source filed them. The rule behind the calls is not given here. Some results are limits rather than exact numbers.

A word on the EC50: it is the concentration giving half of the maximal effect. One may read the Emax as the maximal effect, on the per cent scale that the assay sets.

T1 sequence (P49407 whole entry): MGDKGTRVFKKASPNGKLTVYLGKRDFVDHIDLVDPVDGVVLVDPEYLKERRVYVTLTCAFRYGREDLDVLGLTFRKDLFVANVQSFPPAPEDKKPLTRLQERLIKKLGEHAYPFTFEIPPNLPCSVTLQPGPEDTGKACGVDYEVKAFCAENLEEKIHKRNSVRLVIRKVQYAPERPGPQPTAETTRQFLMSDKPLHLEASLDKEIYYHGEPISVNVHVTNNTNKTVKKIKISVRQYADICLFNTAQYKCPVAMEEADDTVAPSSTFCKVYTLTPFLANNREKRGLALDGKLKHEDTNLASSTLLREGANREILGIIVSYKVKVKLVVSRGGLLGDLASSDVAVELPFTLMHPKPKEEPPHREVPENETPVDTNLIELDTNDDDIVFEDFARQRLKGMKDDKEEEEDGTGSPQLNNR

As for `COc1ccc(/C=C/C2=NN(CCCCN)C(=O)N(Cc3ccc(-c4ccccc4)cc3)c3cc(C(=O)NCCOc4ccccc4)ccc32)cc1`, the outcome in the test on Aorta [1] and with Aorta [3] was Active. For the same molecule, the EC50 in test [2] is 45.7 nM; in test [7], greater than 10000 nM; at Beta-arrestin-1 [8], 0.49 nM; in [9], greater than 10000 nM. In addition, the Emax is 50% in the test on HEK293 [4], 102% in the test on HEK293 [5], 78% at Beta-arrestin-1 [6] and 52% in test [10].

Take `CN(Cc1ccccc1)C(=O)c1ccc2c(c1)N(Cc1ccc(-c3ccccc3)cc1)C(=O)N(CCCCN)N=C2CCc1ccc(O)cc1`: the Emax at 1 µM in the test with Aorta [11] turned out to be 70%; with Aorta [18], 71%. The EC50 in test [12] was 28.2 nM; in test [2], 302 nM; in test [14] it was 178 nM; in the test on Aorta [17], 6.76 nM; in test [19], 41.7 nM; at Beta-arrestin-1 [8], 933 nM. Also, the EC50 is 8.51 nM in [22] and 43.7 nM with Aorta [23]. Moreover, the Emax in test [13] was found to be 92%; with HEK293 [15], 94%; in the test on HEK293 [5], 152%; at Beta-arrestin-1 [6], 194%; in the test with HEK293 [20], 89%; in the test with HEK293 [24], 91%. In addition, the outcome (in [16]; in the test with HEK293 [21]) was inactive.
